# Results taken from patent EP2762573A1, “In vitro method for determining cholestatic properties of a compound” (priority 2013, dated 2014).
# Experiments:
# Details in all cases: male, C57BL/6, mouse
# Parp16 = assay: Biomarkers validation by q-pcr in precision cut liver slices: Parp16 expression
# Method: (§1) 23-weeks old male C57BL/6 mice were obtained from Harlan (Horst, The Netherlands). Animals were kept for 1 week at a housing temperature of 22°C and at a relative humidity of 30-70%. The lighting cycle was 12-h light and 12-h dark. At the age of 24 weeks animals were sacrificed by an overdose of isoflurane. The treatment protocol was approved by the Ethical Committee for Animal Experiments at Wageningen University.
# (§2) Immediately after the animals were killed the liver was perfused with PBS and placed in ice-cold Krebs-Henseleit buffer (KHB) (pH 7.4, supplemented with 11 mM glucose). Liver tissue was transported to the laboratory within approximately 30 min and cylindrical liver cores were produced using a surgical biopsy punch with diameter of 5 mm (KAI, SynErgo Europe, Romania). Liver cores were placed in a Krumdieck tissue slicer (Alabama Research and Development, Munford, AL) filled with ice-cold KHB aerated with carbogen and supplemented with 11 mM glucose. Precesion cut liver slices (PCLS) with a diameter of 5 mm, a thickness of 0.2 mm and a weight of approximately 10 mg were prepared. Immediately after preparation, slices were transferred into culture plates filled with pre-warmed (37 degrees C) Williams E medium (WEM). Three liver slices were pre-cultured in one well of the 6-well plate filled with 4 ml of WEM for one hour with continuous shaking (70 rpm). Incubations were performed in an oxygen controlled incubator (Galaxy 48 R New Brunswick, Nijmegen, the Netherlands) at 80% of oxygen; 5% CO2 and the remaining gas volume was filled up to […] with N2. After one hour of pre-incubation, media were removed and replaced with fresh media containing test compounds or appropriate solvents. After incubations, samples were snap-frozen in liquid nitrogen and stored in -80 °C for further analysis. Samples dedicated to histology were stored in 4 % formaldehyde at room temperature.
# (§3) PCLS were incubated at the same conditions as described above. Slices were exposed for 24 and 48 hours to one concentration of the tested compounds or controls. Concentrations used in the exposure experiments were preselected in the dose selection experiments for each drug individually. […] For the necrotic compounds: 1000 uM acetaminophen, 5 µM paraquat and 1000 uM isoniazid. Liver slices obtained from five mice were used in five toxic compound or control exposure experiments performed at the same time. Dose selection experiments and exposure experiments were performed at different days. Therefore, ATP, LDH, and protein assays were performed again for the exposure experiments to confirm that the selected doses did also not affect slice viability in these experiments.
# (§4) In further studies, expression of ten candidate biomarkers in PCLS was analyzed by q-pcr using the Biorad CFX96 TM Real-Time Detection System (Bio-Rad, Veenendaal, The Netherlands) with the following cycling conditions: 15 min 95°C followed by 40 cycles of 15s 95 °C and 1 min 60 °C. Reactions were performed in 10 µl and contained 20 ng cDNA, 1x TaqMan PCR Master Mix (Applied Biosystems, Foster City, CA), and depending on the analysed gene, 250 nM probe and 900 nM primer (for actin b) or 1xTaqMan gene expression assay (for the remaining genes) (Applied Biosystems, foster City, CA).
# ABCG8 = assay: Biomarkers validation by q-pcr in precision cut liver slices: ABCG8 expression
# Method: as §1, §2, §3, §4
# BAAT = assay: Biomarkers validation by q-pcr in precision cut liver slices: BAAT expression
# Method: as §1, §2, §3, §4
# ABCG5 = assay: Biomarkers validation by q-pcr in precision cut liver slices: ABCG5 expression
# Method: as §1, §2, §3, §4
# KLF15 = assay: Biomarkers validation by q-pcr in precision cut liver slices: KLF15 expression
# Method: as §1, §2, §3, §4
# Nme6 = assay: Biomarkers validation by q-pcr in precision cut liver slices: Nme6 expression
# Method: as §1, §2, §3, §4
# SERPINE1 = assay: Biomarkers validation by q-pcr in precision cut liver slices: SERPINE1 expression
# Method: as §1, §2, §3, §4
# Bcl2l11 = assay: Biomarkers validation by q-pcr in precision cut liver slices: Bcl2l11 expression
# Method: as §1, §2, §3, §4
# Mras = assay: Biomarkers validation by q-pcr in precision cut liver slices: Mras expression
# Method: as §1, §2, §3, §4
# Myo1e = assay: Biomarkers validation by q-pcr in precision cut liver slices: Myo1e expression
# Method: as §1, §2, §3, §4
# PCLS = assay: Cytotoxicity analysis - dose selection experiments (LDH, ATP, protein assay)
# Method: as §1, §2, §3
smiles,measurement,setting,value
"NNC(=O)c1ccncc1 [ISONZ, isoniazid]","*fold change 1, gene expression level Parp 16",Parp16,"-1,0"
same,"*fold change 2, gene expression level Parp 16",Parp16,"-1,0"
same,"*fold change 3, gene expression level Parp 16",Parp16,"1,2"
same,"*fold change 4, gene expression level Parp 16",Parp16,"-2,3"
same,"*fold change 5, gene expression level Parp 16",Parp16,"-1,8"
same,"*fold change 1, gene expression level ABCG8",ABCG8,"2,1"
same,"*fold change 2, gene expression level ABCG8",ABCG8,"2,8"
same,"*fold change 3, gene expression level ABCG8",ABCG8,"1,0"
same,"*fold change 4, gene expression level ABCG8",ABCG8,"2,3"
same,"*fold change 5, gene expression level ABCG8",ABCG8,"1,9"
same,"*fold change 1, gene expression level BAAT",BAAT,"1,8"
same,"*fold change 2, gene expression level BAAT",BAAT,"1,7"
same,"*fold change 3, gene expression level BAAT",BAAT,"1,1"
same,"*fold change 4, gene expression level BAAT",BAAT,"-1,3"
same,"*fold change 5, gene expression level BAAT",BAAT,"1,3"
same,"*fold change 1, gene expression level ABCG5",ABCG5,"2,0"
same,"*fold change 2, gene expression level ABCG5",ABCG5,"3,0"
same,"*fold change 3, gene expression level ABCG5",ABCG5,"1,1"
same,"*fold change 4, gene expression level ABCG5",ABCG5,"2,0"
same,"*fold change 5, gene expression level ABCG5",ABCG5,"2,0"
same,"*fold change 1, gene expression level KLF15",KLF15,"1,2"
same,"*fold change 2, gene expression level KLF15",KLF15,"2,4"
same,"*fold change 3, gene expression level KLF15",KLF15,"1,0"
same,"*fold change 4, gene expression level KLF15",KLF15,"1,1"
same,"*fold change 5, gene expression level KLF15",KLF15,"1,2"
same,"*fold change 1, gene expression level Nme6",Nme6,"1,3"
same,"*fold change 2, gene expression level Nme6",Nme6,"1,2"
same,"*fold change 3, gene expression level Nme6",Nme6,"1,1"
same,"*fold change 4, gene expression level Nme6",Nme6,"-1,3"
same,"*fold change 5, gene expression level Nme6",Nme6,"-1,1"
same,"*fold change 1, gene expression level SERPINE1",SERPINE1,"5,4"
same,"*fold change 2, gene expression level SERPINE1",SERPINE1,"1,9"
same,"*fold change 3, gene expression level SERPINE1",SERPINE1,"1,4"
same,"*fold change 4, gene expression level SERPINE1",SERPINE1,"-1,4"
same,"*fold change 5, gene expression level SERPINE1",SERPINE1,"-2,9"
same,"*fold change 1, gene expression level Bcl2111",Bcl2l11,"1,9"
same,"*fold change 2, gene expression level Bcl2111",Bcl2l11,"1,7"
same,"*fold change 3, gene expression level Bcl2111",Bcl2l11,"1,3"
same,"*fold change 4, gene expression level Bcl2111",Bcl2l11,"-1,2"
same,"*fold change 5, gene expression level Bcl2111",Bcl2l11,"-1,2"
same,"*fold change 1, gene expression level Mras",Mras,"1,7"
same,"*fold change 2, gene expression level Mras",Mras,"-1,1"
same,"*fold change 3, gene expression level Mras",Mras,"1,3"
same,"*fold change 4, gene expression level Mras",Mras,"-1,3"
same,"*fold change 5, gene expression level Mras",Mras,"-1,3"
same,"*fold change 1, gene expression level Myo 1e",Myo1e,"1,5"
same,"*fold change 2, gene expression level Myo 1e",Myo1e,"1,3"
same,"*fold change 3, gene expression level Myo 1e",Myo1e,"1,3"
same,"*fold change 4, gene expression level Myo 1e",Myo1e,"-1,3"
same,"*fold change 5, gene expression level Myo 1e",Myo1e,"1,1"
same,highest concentration that did not cause significant increase of toxicity,PCLS,1000 µM
"CCCC(CCC)C(=O)O [VA, valproic acid]",highest concentration that did not cause significant increase of toxicity,PCLS,200 µM
